Measurements published in ChEMBL document CHEMBL4411258, “Novel natural compounds from endophytic fungi with anticancer activity” (Eur J Med Chem, 2018).
≈ marks a conversion by molar mass, not a printed value.

Experiments:
A549 [1] = test: Cytotoxicity against human A549 cells by MTT assay; type: functional, cell-based
SGC-7901 = test: Cytotoxicity against human SGC7901 cells by MTT assay; type: functional, cell-based
MDA-MB-435 [2] = test: Cytotoxicity against human MDA-MB-435 cells by MTT assay; type: functional, cell-based
Vero = test: Cytotoxicity against African green monkey Vero cells by resazurin microplate assay; type: cell-based; details: Chlorocebus sabaeus
NCI-H187 = test: Cytotoxicity against human NCI-H187 cells by resazurin microplate assay; type: functional, cell-based
SK-OV-3 = test: Cytotoxicity against human SKOV3 cells after 48 hrs by neutral red dye based assay; type: functional, cell-based; details: SK-OV-3, 48 h
BT-549 = test: Cytotoxicity against human BT549 cells after 48 hrs by neutral red dye based assay; type: functional, cell-based; details: BT-549, 48 h
A2780 [3] = test: Cytotoxicity against human A2780 cells after 72 hrs by MTT assay; type: functional, cell-based; details: A2780, 72 h
MDA-MB-435 [4] = test: Cytotoxicity against human MDA-MB-435 cells after 72 hrs by MTT assay; type: functional, cell-based; details: MDA-MB-435, 72 h
HepG2 [5] = test: Cytotoxicity against human HepG2 cells after 72 hrs by MTT assay; type: functional, cell-based; details: HepG2, 72 h
HCT-116 = test: Cytotoxicity against human HCT116 cells after 72 hrs by MTT assay; type: functional, cell-based; details: HCT-116, 72 h
HepG2 [6] = test: Cytotoxicity against human HepG2 cells after 24 hrs by MTT assay; type: functional, cell-based; details: HepG2, 24 h
MCF7 [7] = test: Cytotoxicity against human MCF7 cells by MTS assay; type: functional, cell-based
[8] = Cytotoxicity against mouse LM3 cells by MTS assay; type: functional, cell-based
L02 = test: Cytotoxicity against human L02 cells by MTS assay; type: cell-based
HeLa = test: Cytotoxicity against human HeLa cells by MTS assay; type: functional, cell-based
Huh-7 = test: Cytotoxicity against human HuH7 cells by MTS assay; type: functional, cell-based
A549 [9] = test: Cytotoxicity against human A549 cells by MTS assay; type: functional, cell-based
NCI-H446 = test: Cytotoxicity against human NCI-H446 cells by MTS assay; type: functional, cell-based
SW1990 = test: Cytotoxicity against human SW1990 cells by MTS assay; type: functional, cell-based
A2780 [10] = test: Cytotoxicity against human A2780 cells by MTT assay; type: functional, cell-based
HL-60 [11] = test: Cytotoxicity against human HL60 cells by trypan blue staining based assay; type: functional, cell-based
NB-4 = test: Cytotoxicity against human NB4 cells by MTT assay; type: functional, cell-based
PC-3 = test: Cytotoxicity against human PC3 cells by MTT assay; type: functional, cell-based
SH-SY5Y = test: Cytotoxicity against human SH-SY5Y cells by MTT assay; type: functional, cell-based
MCF7 [12] = test: Cytotoxicity against human MCF7 cells by MTT assay; type: functional, cell-based
[13] = Inhibition of TNFalpha-induced NFkappaB (unknown origin) activation expressed in HEK293 cells preincubated for 1 hr followed by TNFalpha stimulation and measured after 1 hr by dual luciferase reporter gene assay; type: cell-based; details: Homo sapiens
[14] = biological target: Polyunsaturated fatty acid 5-lipoxygenase (Homo sapiens) (UniProt P09917); test: Inhibition of 5-LOX (unknown origin) at 30 ug/ml relative to control
HL-60 [15] = test: Cytotoxicity against human HL60 cells by MTT assay; type: functional, cell-based
RPMI-8226 = test: Cytotoxicity against human RPMI8226 cells after 48 hrs by MTT assay; type: functional, cell-based; details: RPMI-8226, 48 h
KB = test: Cytotoxicity against human KB cells by MTT assay; type: functional, cell-based
T47D = test: Cytotoxicity against human T47D cells after 48 hrs by MTT assay; type: functional, cell-based
[16] = Inhibition of RANKL-induced NFkappaB (unknown origin) activation expressed in mouse RAW264.7 cells preincubated for 1 hr followed by RANKL stimulation and measured after 6 hrs by luciferase reporter gene based assay; type: cell-based

Polyunsaturated fatty acid 5-lipoxygenase (Homo sapiens), sequence (P09917 whole entry): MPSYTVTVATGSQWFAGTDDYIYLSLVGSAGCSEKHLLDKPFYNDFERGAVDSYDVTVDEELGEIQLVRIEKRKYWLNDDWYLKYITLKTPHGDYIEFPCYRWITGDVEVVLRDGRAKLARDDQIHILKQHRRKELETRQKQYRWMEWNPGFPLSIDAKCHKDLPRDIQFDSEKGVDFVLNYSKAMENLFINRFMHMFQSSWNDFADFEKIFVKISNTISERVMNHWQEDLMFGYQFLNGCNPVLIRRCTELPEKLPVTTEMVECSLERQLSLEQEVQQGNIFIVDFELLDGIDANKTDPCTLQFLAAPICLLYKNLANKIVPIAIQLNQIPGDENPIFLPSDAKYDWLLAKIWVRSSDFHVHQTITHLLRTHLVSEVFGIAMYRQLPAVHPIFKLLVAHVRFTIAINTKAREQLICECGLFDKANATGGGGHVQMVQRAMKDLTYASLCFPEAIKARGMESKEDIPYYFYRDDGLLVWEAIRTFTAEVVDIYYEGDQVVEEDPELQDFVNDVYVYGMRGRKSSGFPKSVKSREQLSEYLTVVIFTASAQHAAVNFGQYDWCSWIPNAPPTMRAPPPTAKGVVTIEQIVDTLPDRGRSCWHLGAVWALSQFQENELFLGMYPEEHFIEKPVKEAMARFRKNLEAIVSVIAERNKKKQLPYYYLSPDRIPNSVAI

**Q.** What does the source list for `CC1=C[C@@H]2/C=C/C[C@H](C)/C=C(\C)[C@@H](O)C(=O)/C=C/C(=O)[C@]23C(=O)N[C@H]2Cc4c([nH]c5ccccc45)[C@@]1(C)[C@@H]23`?
**A.** IC50 (A549 [1]): 16.1 µM; IC50 (SGC-7901): 7.32 µM; IC50 (MDA-MB-435 [2]): 7.55 µM

**Q.** Which IC50 (Vero) does the source give for `C/C=C/C(O)[C@@H]1OC(=O)[C@@]2(C)[C@@H]3CC[C@@H](C)C[C@H]3C=C[C@@H]12` (some centres not stated) here?
**A.** 24.2 µg/mL (≈ 83.5 µM)

**Q.** And the IC50 (NCI-H187)?
**A.** 30.5 µg/mL (≈ 105 µM)

**Q.** Which IC50 (SK-OV-3) does the source give for `C[C@@H](N)C(=O)Nc1ccccc1C(=O)N[C@@H](O)CCS` here?
**A.** 0.8 µM

**Q.** What about the IC50 (BT-549) of the same compound?
**A.** 0.4 µM

**Q.** With `O=C1N[C@@]2(Cc3ccccc3O2)C(=O)N/C1=C\c1ccccc1O` as the compound, how does the IC50 (A2780 [3]) read?
**A.** 59 µM

**Q.** With `CC1=C[C@@H]2/C=C/C[C@H](C)/C=C(\C)CC(=O)/C=C/C(=O)[C@]23C(=O)N[C@@H](Cc2c[nH]c4ccccc24)[C@@H]3[C@@H]1C` [PROCHEATOGLOBOSIN II] as the compound, how does the IC50 (A549 [1]) read?
**A.** 35.9 µM

**Q.** What about the IC50 (SGC-7901) of the same compound?
**A.** 37.7 µM

**Q.** What about the IC50 (MDA-MB-435 [2]) of the same compound?
**A.** 36.9 µM

**Q.** Which results are given for `O=Cc1cc(/C=C/c2cc(O)cc(O)c2)ccc1O`?
**A.** IC50 (MDA-MB-435 [4]): < 50 µM; IC50 (HepG2 [5]): < 50 µM; IC50 (HCT-116): < 50 µM

**Q.** Which IC50 (HepG2 [6]) does the source give for `COc1ccc2c3c([nH]c2c1)C(C=C(C)C)N1C(=O)C2CCCN2C(=O)C1(OC)C3OC(=O)c1cc(O)cc(OC)c1C(=O)c1c(O)cc(C)cc1OC` (configuration not stated) here?
**A.** 47.5 µM

**Q.** Which IC50 (MCF7 [7]) does the source give for `O=C1CC[C@@H](c2ccc(O)c3c2C(=O)CCC3=O)c2cccc(O)c21` here?
**A.** 1 to 20 µM

**Q.** And the IC50 [8]?
**A.** 1 to 20 µM

**Q.** And the IC50 (L02)?
**A.** 1 to 20 µM

**Q.** What about the IC50 (HeLa) of the same compound?
**A.** 1 to 20 µM

**Q.** What about the IC50 (Huh-7) of the same compound?
**A.** 1 to 20 µM

**Q.** And the IC50 (A549 [9])?
**A.** 1 to 20 µM

**Q.** What about the IC50 (NCI-H446) of the same compound?
**A.** 1 to 20 µM

**Q.** And the IC50 (SW1990)?
**A.** 1 to 20 µM

**Q.** For `C/C=C(\C)[C@H]1[C@@H](/C=C/C=C(\C)[C@@H](O)[C@@H](C)C(C)O)[C@@H]2C[C@@H](OC(=O)Cc3ccccc3)[C@](C)(O)C[C@H]2[C@@H]2O[C@@]21C` (some centres not stated), which IC50 (A2780 [10]) is on record?
**A.** 12.5 µM

**Q.** With `O=C1CC[C@]2(C[C@@H](O)C(=O)O2)c2cccc(O)c21` as the compound, how does the IC50 (HL-60 [11]) read?
**A.** 29.1 µM

**Q.** Which IC50 (A549 [1]) does the source give for `COC(=O)[C@@H]1c2c(oc3cc(CCO)cc(O)c3c2=O)C=C[C@H]1O` here?
**A.** 5.6 µM

**Q.** And the IC50 (NB-4)?
**A.** 2.2 µM

**Q.** And the IC50 (PC-3)?
**A.** 2.8 µM

**Q.** What about the IC50 (SH-SY5Y) of the same compound?
**A.** 4.1 µM

**Q.** What about the IC50 (MCF7 [12]) of the same compound?
**A.** 6.5 µM

**Q.** With `CC(=O)OC(CC=C(C)C)C[C@@]1(C)CCC[C@H]2[C@@]3(C)C=CC(=O)[C@@H](C)[C@@H]3[C@H](OC(C)=O)C(=O)[C@@]21C` (some centres not stated) as the compound, how does the IC50 (HepG2 [6]) read?
**A.** 140 µM

**Q.** Which results are given for `O=Cc1c(O)cc(O)cc1/C=C/c1ccc(O)cc1`?
**A.** IC50 (MDA-MB-435 [4]): < 50 µM; IC50 (HepG2 [5]): < 50 µM; IC50 (HCT-116): < 50 µM

**Q.** What does the source list for `O=C1CC[C@@H](c2ccc(O)c3c2[C@@H](O)CCC3=O)c2cccc(O)c21`?
**A.** IC50 (MCF7 [7]): 1 to 20 µM; IC50 [8]: 1 to 20 µM; IC50 (L02): 1 to 20 µM; IC50 (HeLa): 1 to 20 µM; IC50 (Huh-7): 1 to 20 µM; IC50 (A549 [9]): 1 to 20 µM; IC50 (NCI-H446): 1 to 20 µM; IC50 (SW1990): 1 to 20 µM

**Q.** Which IC50 [13] does the source give for `C[C@@H]1CO[C@@]2(O)[C@@H]1C[C@]1(C)[C@@H](C)CC[C@H](O)[C@@]13O[C@@H]23` here?
**A.** 7.11 µM

**Q.** Which inhibition [14] does the source give for `CCCCC/C=C/C1=C(CO)[C@@H](O)[C@H]2O[C@@]2(C/C=C(\C)C(=O)O)[C@H]1O` here?
**A.** 67.4%

**Q.** For `COC1=C2c3cc(OC)cc(O)c3C(=O)O[C@@]2(C)CC1=O`, which IC50 (HL-60 [15]) is on record?
**A.** > 200 µM

**Q.** Which IC50 (RPMI-8226) does the source give for `CC(C)=C1CC[C@@]2(C)OC3=C(C[C@@H]12)C(=O)[C@]1(O)CO[C@H]3C1` here?
**A.** 83.7 µM

**Q.** With `CC(C)=CCCC(C)(O)[C@H]1CC[C@@]2(C)OC3=C(C[C@@H]12)C(=O)[C@@H](O)CC3` (some centres not stated) as the compound, how does the IC50 (HL-60 [11]) read?
**A.** 32.5 µM

**Q.** For `COC(=O)c1cc(OC)cc(OC)c1C(=O)c1coc2c1OC(C)CC2=O` (configuration not stated), which IC50 (KB) is on record?
**A.** 4.7 µM

**Q.** With `CO[C@H]1C[C@H](O)C2=C(C[C@H]3C(=C(C)C)CC[C@@]3(C)O2)C1=O` as the compound, how does the IC50 (RPMI-8226) read?
**A.** 92.1 µM

**Q.** Which IC50 (T47D) does the source give for `CCCC[C@H](C)/C=C(C)/C=C/C(=O)O[C@@]1(C)C(=O)C=C2C=C(/C=C/C(=O)O)OC=C2C1=O` here?
**A.** 1 to 10 µM

**Q.** Which IC50 (MDA-MB-435 [4]) does the source give for `O=Cc1cc(/C=C/c2cc(O)cc(O)c2C=O)ccc1O` here?
**A.** < 50 µM

**Q.** And the IC50 (HepG2 [5])?
**A.** < 50 µM

**Q.** What about the IC50 (HCT-116) of the same compound?
**A.** < 50 µM

**Q.** With `C=C(CC[C@@H](C)[C@H]1CC=C2C3=C([C@@H](O)[C@H](OC(C)=O)[C@@]21C)[C@@]1(C)C[C@@H](O)[C@H](OC(=O)CCCCCCCCCO)C(C)(C)[C@@H]1CC3)C(C)C` as the compound, how does the IC50 (SK-OV-3) read?
**A.** 0.12 µg/mL

**Q.** And the IC50 (BT-549)?
**A.** 1.76 µg/mL

**Q.** With `COC(=O)c1cc(OC)cc2c1C(=O)[C@@H]([C@@H](O)CC(C)=O)CO2` as the compound, how does the IC50 [16] read?
**A.** 30 to 46 µM

**Q.** For `CCCC[C@H](C)/C=C(C)/C=C/C(=O)O`, which IC50 (T47D) is on record?
**A.** 1 to 10 µM
